Experimental data taken from paper PMC5218480 (PLoS ONE, 2017).

Tested on: MV-4-11 cells
Assay: Gene expression microarray analysis (Affymetrix PrimeView) and GSEA
Format: cell-based, human
Design: RFU PODN (11730768_x_at) / Fold change /veh PODN (11730768_x_at) / RFU LINC00158 (11744669_a_at) / Fold change /veh LINC00158 (11744669_a_at) / RFU DUSP10 (11751237_a_at) / Fold change /veh DUSP10 (11751237_a_at) / RFU ID3 (11757404_x_at) / Fold change /veh ID3 (11757404_x_at) / RFU PLEKHG5 (11737974_s_at) / Fold change /veh PLEKHG5 (11737974_s_at) / RFU LRRC4B (11730491_at) / Fold change /veh LRRC4B (11730491_at) / RFU GIMAP4 (11747438_a_at) / Fold change /veh GIMAP4 (11747438_a_at) / RFU KRT8 (11758183_x_at) / Fold change /veh KRT8 (11758183_x_at) / RFU CNN1 (11734310_a_at) / Fold change /veh CNN1 (11734310_a_at) / RFU VPS37D (11726825_at) / Fold change /veh VPS37D (11726825_at) / RFU C10orf10 (11716522_x_at) / Fold change /veh C10orf10 (11716522_x_at) / RFU KIR2DL2 /// KIR2DL4 /// KIR2DL5A /// KIR2DL5B /// KIR2DS1 /// KIR2DS2 /// KIR2DS3 /// KIR2DS4 /// KIR3DL3 /// KIR3DL3 /// KIR3DS1 (11738374_at) / Fold change /veh KIR2DL2 /// KIR2DL4 /// KIR2DL5A /// KIR2DL5B /// KIR2DS1 /// KIR2DS2 /// KIR2DS3 /// KIR2DS4 /// KIR3DL3 /// KIR3DL3 /// KIR3DS1 (11738374_at) / RFU C1QL1 (11718748_at) / Fold change /veh C1QL1 (11718748_at) / RFU TMPRSS4 (11747572_a_at) / Fold change /veh TMPRSS4 (11747572_a_at) / RFU HAMP (11756126_x_at) / Fold change /veh HAMP (11756126_x_at) / RFU RNFT2 (11725882_a_at) / Fold change /veh RNFT2 (11725882_a_at) / RFU NR4A2 (11747474_a_at) / Fold change /veh NR4A2 (11747474_a_at) / RFU ABCC12 (11746883_a_at) / Fold change /veh ABCC12 (11746883_a_at) / RFU TMEM136 (11760407_x_at) / Fold change /veh TMEM136 (11760407_x_at) / RFU CLDN22 /// WWC2 (11732394_at) / Fold change /veh CLDN22 /// WWC2 (11732394_at) / RFU HLA-DPB1 (11760878_x_at) / Fold change /veh HLA-DPB1 (11760878_x_at) / RFU SPINT1 (11716480_a_at) / Fold change /veh SPINT1 (11716480_a_at) / RFU GAP43 (11754022_s_at) / Fold change /veh GAP43 (11754022_s_at) / RFU A4GNT (11735810_at) / Fold change /veh A4GNT (11735810_at) / RFU PRB3 (11715151_x_at) / Fold change /veh PRB3 (11715151_x_at) / RFU TUBB4B (11761932_at) / Fold change /veh TUBB4B (11761932_at) / RFU CAPN14 (11732068_a_at) / Fold change /veh CAPN14 (11732068_a_at) / RFU TMCC2 (11721928_a_at) / Fold change /veh TMCC2 (11721928_a_at) / RFU IRGQ (11745062_a_at) / Fold change /veh IRGQ (11745062_a_at) / RFU FAM174B (11720279_a_at) / Fold change /veh FAM174B (11720279_a_at) / RFU TMPRSS4 (11748680_a_at) / Fold change /veh TMPRSS4 (11748680_a_at) / RFU FAM212B (11763350_a_at) / Fold change /veh FAM212B (11763350_a_at) / RFU PLEKHG5 (11743358_a_at) / Fold change /veh PLEKHG5 (11743358_a_at) / RFU ZSCAN30 (11745921_a_at) / Fold change /veh ZSCAN30 (11745921_a_at) / RFU CMKLR1 (11741424_a_at) / Fold change /veh CMKLR1 (11741424_a_at) / RFU LOC101060620 /// MAPK8IP1 (11723275_at) / Fold change /veh LOC101060620 /// MAPK8IP1 (11723275_at) / RFU SPTSSB (11747773_x_at) / Fold change /veh SPTSSB (11747773_x_at) / RFU PRSS12 (11739890_at) / Fold change /veh PRSS12 (11739890_at) / RFU BIN1 (11741810_x_at) / Fold change /veh BIN1 (11741810_x_at) / RFU WNT11 (11732464_a_at) / Fold change /veh WNT11 (11732464_a_at) / RFU C10orf10 (11716521_a_at) / Fold change /veh C10orf10 (11716521_a_at) / RFU C5orf56 (11738089_at) / Fold change /veh C5orf56 (11738089_at) / RFU CYB561 (11721691_x_at) / Fold change /veh CYB561 (11721691_x_at) / RFU ANKRD19P (11752326_a_at) / Fold change /veh ANKRD19P (11752326_a_at) / RFU OR2T12 /// OR2T33 /// OR2T8 (11738714_s_at) / Fold change /veh OR2T12 /// OR2T33 /// OR2T8 (11738714_s_at) / RFU VCAN (11748164_a_at) / Fold change /veh VCAN (11748164_a_at) / RFU JSRP1 (11732532_at) / Fold change /veh JSRP1 (11732532_at) / RFU KRTAP10-11 (11738290_x_at) / Fold change /veh KRTAP10-11 (11738290_x_at) / RFU MYO3A (11730013_a_at) / Fold change /veh MYO3A (11730013_a_at) / RFU EBF3 (11725865_a_at) / Fold change /veh EBF3 (11725865_a_at) / RFU CAMK2N1 (11719241_x_at) / Fold change /veh CAMK2N1 (11719241_x_at) / RFU C5orf56 (11738088_a_at) / Fold change /veh C5orf56 (11738088_a_at) / RFU OLFML3 (11715873_a_at) / Fold change /veh OLFML3 (11715873_a_at) / RFU LOC100653217 /// NTM (11731650_a_at) / Fold change /veh LOC100653217 /// NTM (11731650_a_at) / RFU MAPK11 (11762145_a_at) / Fold change /veh MAPK11 (11762145_a_at) / RFU FIZ1 (11724087_x_at) / Fold change /veh FIZ1 (11724087_x_at) / RFU OASL (11726364_x_at) / Fold change /veh OASL (11726364_x_at) / RFU SOX15 (11748057_x_at) / Fold change /veh SOX15 (11748057_x_at) / RFU CD79A (11719716_a_at) / Fold change /veh CD79A (11719716_a_at) / RFU HIST1H1D (11736915_at) / Fold change /veh HIST1H1D (11736915_at) / RFU CASKIN2 (11723855_a_at) / Fold change /veh CASKIN2 (11723855_a_at) / RFU LOC730098 (11760151_x_at) / Fold change /veh LOC730098 (11760151_x_at) / RFU OR4N2 (11742367_at) / Fold change /veh OR4N2 (11742367_at) / RFU PRRT2 (11749266_a_at) / Fold change /veh PRRT2 (11749266_a_at) / RFU SNX32 (11753110_a_at) / Fold change /veh SNX32 (11753110_a_at) / RFU CDHR5 (11726645_a_at) / Fold change /veh CDHR5 (11726645_a_at) / RFU RCAN1 (11760418_a_at) / Fold change /veh RCAN1 (11760418_a_at) / RFU FAM167A (11723789_a_at) / Fold change /veh FAM167A (11723789_a_at) / RFU FAM26E (11764081_at) / Fold change /veh FAM26E (11764081_at) / RFU ISYNA1 (11749810_s_at) / Fold change /veh ISYNA1 (11749810_s_at) / RFU ACY1 (11761880_at) / Fold change /veh ACY1 (11761880_at) / RFU 11764098_at / Fold change /veh 11764098_at / RFU SAMD14 (11745864_x_at) / Fold change /veh SAMD14 (11745864_x_at) / RFU NPB (11741838_a_at) / Fold change /veh NPB (11741838_a_at) / RFU TMPRSS6 (11731388_a_at) / Fold change /veh TMPRSS6 (11731388_a_at) / RFU KRTAP10-2 (11738614_at) / Fold change /veh KRTAP10-2 (11738614_at) / RFU ARHGAP8 /// PRR5-ARHGAP8 (11727945_x_at) / Fold change /veh ARHGAP8 /// PRR5-ARHGAP8 (11727945_x_at) / RFU KRTAP5-7 /// NADSYN1 (11734609_at) / Fold change /veh KRTAP5-7 /// NADSYN1 (11734609_at) / RFU RASL12 (11751679_a_at) / Fold change /veh RASL12 (11751679_a_at) / RFU CDKN2B (11736163_a_at) / Fold change /veh CDKN2B (11736163_a_at) / RFU PRF1 (11729649_at) / Fold change /veh PRF1 (11729649_at) / RFU, ZNF638 /// ZNF638-IT1 / Fold change vs veh, ZNF638 /// ZNF638-IT1 / RFU, PANK3 / Fold change vs veh, PANK3 / RFU, SH3YL1 / Fold change vs veh, SH3YL1 / RFU, ZEB2 / Fold change vs veh, ZEB2 / RFU, NRIP1 / Fold change vs veh, NRIP1 / RFU, PTTG1IP / Fold change vs veh, PTTG1IP / RFU, CAPN2 / Fold change vs veh, CAPN2 / RFU, MED14 / Fold change vs veh, MED14 / RFU, SNORA58 / Fold change vs veh, SNORA58 / RFU, C1orf63 / Fold change vs veh, C1orf63 / RFU, LRRFIP1 / Fold change vs veh, LRRFIP1 / RFU, NDUFAF7 / Fold change vs veh, NDUFAF7 / RFU, SLC12A2 / Fold change vs veh, SLC12A2 / RFU, IBTK / Fold change vs veh, IBTK / RFU, ESF1 / Fold change vs veh, ESF1 / Fold change vs veh, TMEM50B / RFU, TAOK1 / Fold change vs veh, TAOK1 / RFU, ACBD3 / Fold change vs veh, ACBD3 / RFU, TMA16 / Fold change vs veh, TMA16 / RFU, RWDD3 / Fold change vs veh, RWDD3 / RFU, BCAT1 / Fold change vs veh, BCAT1 / RFU, EDEM3 / Fold change vs veh, EDEM3 / RFU, TMEM33 / Fold change vs veh, TMEM33 / RFU, WDR75 / Fold change vs veh, WDR75 / RFU, AHCTF1 / Fold change vs veh, AHCTF1 / RFU, TFRC / Fold change vs veh, TFRC / RFU, ZDHHC17 / Fold change vs veh, ZDHHC17 / RFU, NOM1 / Fold change vs veh, NOM1 / RFU, ARL8B / Fold change vs veh, ARL8B / RFU, ZBTB11 / Fold change vs veh, ZBTB11 / RFU, TAMM41 / Fold change vs veh, TAMM41 / RFU, KIAA1704 /// LOC100996395 / Fold change vs veh, KIAA1704 /// LOC100996395 / RFU, ING1 / Fold change vs veh, ING1 / RFU, TRMT61B / Fold change vs veh, TRMT61B / RFU, FUBP3 / Fold change vs veh, FUBP3 / RFU, TP53 / Fold change vs veh, TP53 / RFU, TNKS2 / Fold change vs veh, TNKS2 / RFU, ZFP14 / Fold change vs veh, ZFP14 / RFU, ACTR2 / Fold change vs veh, ACTR2 / RFU, PPP3R1 / Fold change vs veh, PPP3R1 / RFU, PIK3R1 / Fold change vs veh, PIK3R1 / RFU, HNRNPA1 / Fold change vs veh, HNRNPA1 / RFU, RNF170 / Fold change vs veh, RNF170 / RFU, ZNF28 / Fold change vs veh, ZNF28 / RFU, RNGTT / Fold change vs veh, RNGTT / RFU, OGT / Fold change vs veh, OGT / RFU, BRD1 / Fold change vs veh, BRD1 / RFU, MARS / Fold change vs veh, MARS / RFU, ZNF655 / Fold change vs veh, ZNF655 / RFU, FAHD1 / Fold change vs veh, FAHD1 / RFU, BDP1 / Fold change vs veh, BDP1 / RFU, LRRCC1 / Fold change vs veh, LRRCC1 / RFU, ARID1A / Fold change vs veh, ARID1A / RFU, ZNF146 / Fold change vs veh, ZNF146 / RFU, ZNF330 / Fold change vs veh, ZNF330 / RFU, GPN3 / Fold change vs veh, GPN3 / RFU, C9orf123 / Fold change vs veh, C9orf123 / RFU, N4BP2L2 / Fold change vs veh, N4BP2L2 / RFU, ARFIP1 / Fold change vs veh, ARFIP1 / RFU, FAM179B / Fold change vs veh, FAM179B / RFU, BCL10 / Fold change vs veh, BCL10 / RFU, UHRF1BP1L / Fold change vs veh, UHRF1BP1L / RFU, BET1 / Fold change vs veh, BET1 / RFU, CNOT2 / Fold change vs veh, CNOT2 / RFU, ZNF268 / Fold change vs veh, ZNF268 / Fold change vs veh, ZNF507 / RFU, DGCR2 / Fold change vs veh, DGCR2 / RFU, WDSUB1 / Fold change vs veh, WDSUB1 / Fold change vs veh, HSP90B1 /// MIR3652 / RFU, ADSS / Fold change vs veh, ADSS / RFU, GK / Fold change vs veh, GK / RFU, ZNF148 / Fold change vs veh, ZNF148 / RFU, TAF9 / Fold change vs veh, TAF9 / RFU, SLC1A5 / Fold change vs veh, SLC1A5 / RFU, SLMO2 / Fold change vs veh, SLMO2 / RFU, ABCC4 / Fold change vs veh, ABCC4 / RFU, LOC101060439 /// RAP1B / Fold change vs veh, LOC101060439 /// RAP1B / RFU, RFX7 / Fold change vs veh, RFX7 / RFU, GTPBP10 / Fold change vs veh, GTPBP10 / RFU, CNEP1R1 / Fold change vs veh, CNEP1R1 / RFU, BIVM-ERCC5 /// ERCC5 / Fold change vs veh, BIVM-ERCC5 /// ERCC5 / RFU, ILF3 / Fold change vs veh, ILF3 / RFU 11762660_at / Fold change /veh 11762660_at / RFU VCAN (11757783_s_at) / Fold change /veh VCAN (11757783_s_at) / RFU DDX43 (11728927_at) / Fold change /veh DDX43 (11728927_at) / RFU KRT8 (11758188_x_at) / Fold change /veh KRT8 (11758188_x_at) / RFU NKD1 (11759106_at) / Fold change /veh NKD1 (11759106_at) / RFU SRD5A1 (11742802_a_at) / Fold change /veh SRD5A1 (11742802_a_at) / RFU TPSAB1 /// TPSB2 (11721975_s_at) / Fold change /veh TPSAB1 /// TPSB2 (11721975_s_at) / RFU GSTM3 (11746129_a_at) / Fold change /veh GSTM3 (11746129_a_at) / RFU IL23R (11737362_x_at) / Fold change /veh IL23R (11737362_x_at) / RFU TMEM51 (11727254_a_at) / Fold change /veh TMEM51 (11727254_a_at) / RFU PIWIL2 (11732686_x_at) / Fold change /veh PIWIL2 (11732686_x_at) / RFU ORM1 (11744905_x_at) / Fold change /veh ORM1 (11744905_x_at) / RFU CCDC152 (11743942_at) / Fold change /veh CCDC152 (11743942_at) / RFU ECM1 (11717891_a_at) / Fold change /veh ECM1 (11717891_a_at) / RFU IL23R (11748794_a_at) / Fold change /veh IL23R (11748794_a_at) / RFU TNFAIP8L3 (11732012_x_at) / Fold change /veh TNFAIP8L3 (11732012_x_at) / RFU MBOAT4 (11741988_at) / Fold change /veh MBOAT4 (11741988_at) / RFU 11764193_at / Fold change /veh 11764193_at / RFU TMEM53 (11763286_at) / Fold change /veh TMEM53 (11763286_at) / RFU MAGEB2 (11727129_at) / Fold change /veh MAGEB2 (11727129_at) / RFU TMEM200A (11744735_a_at) / Fold change /veh TMEM200A (11744735_a_at) / RFU CCDC152 (11751479_a_at) / Fold change /veh CCDC152 (11751479_a_at) / RFU FAM211A (11726209_a_at) / Fold change /veh FAM211A (11726209_a_at) / RFU RGS16 (11746705_a_at) / Fold change /veh RGS16 (11746705_a_at) / RFU VCAN (11755009_s_at) / Fold change /veh VCAN (11755009_s_at) / RFU RHOB (11743442_s_at) / Fold change /veh RHOB (11743442_s_at) / RFU RGS16 (11720943_a_at) / Fold change /veh RGS16 (11720943_a_at) / RFU RGS16 (11720944_at) / Fold change /veh RGS16 (11720944_at) / RFU, VPS4B / Fold change vs veh, VPS4B / RFU, CREB1 / Fold change vs veh, CREB1 / RFU, DNAJC13 / Fold change vs veh, DNAJC13 / RFU, GNAQ / Fold change vs veh, GNAQ / RFU, CDK5R1 / Fold change vs veh, CDK5R1 / RFU, ZRANB3 / Fold change vs veh, ZRANB3 / RFU, CUL4A / Fold change vs veh, CUL4A / RFU, CCNY / Fold change vs veh, CCNY / RFU, UFL1 / Fold change vs veh, UFL1 / RFU, COG3 / Fold change vs veh, COG3 / RFU, DIAPH2 / Fold change vs veh, DIAPH2 / RFU, SKA2 / Fold change vs veh, SKA2 / RFU, AFF3 / Fold change vs veh, AFF3 / RFU, LMF1 / Fold change vs veh, LMF1 / RFU, IPO11 / Fold change vs veh, IPO11 / RFU, DFFB / Fold change vs veh, DFFB / RFU, FOXP1 / Fold change vs veh, FOXP1 / RFU, CARD8 / Fold change vs veh, CARD8 / RFU, STRN3 / Fold change vs veh, STRN3 / RFU, ADK / Fold change vs veh, ADK / RFU, RASSF2 / Fold change vs veh, RASSF2 / RFU, WIPF1 / Fold change vs veh, WIPF1 / RFU, LARP1B / Fold change vs veh, LARP1B / RFU, RASA1 / Fold change vs veh, RASA1 / RFU, RB1 / Fold change vs veh, RB1 / RFU, PPFIA1 / Fold change vs veh, PPFIA1 / RFU, MAT2A / Fold change vs veh, MAT2A / RFU, CCT5 / Fold change vs veh, CCT5 / RFU, WDR92 / Fold change vs veh, WDR92 / RFU, CUX1 / Fold change vs veh, CUX1 / RFU, TTC7A / Fold change vs veh, TTC7A / RFU, TMEM135 / Fold change vs veh, TMEM135 / RFU, DEPTOR / Fold change vs veh, DEPTOR / RFU, CPM / Fold change vs veh, CPM / RFU, DNAJB6 / Fold change vs veh, DNAJB6 / RFU, CACNA2D3 / Fold change vs veh, CACNA2D3 / RFU, DTX4 / Fold change vs veh, DTX4 / RFU, TFCP2 / Fold change vs veh, TFCP2 / RFU, GMCL1 /// GMCL1P1 / Fold change vs veh, GMCL1 /// GMCL1P1 / RFU, AEBP2 / Fold change vs veh, AEBP2 / RFU, SNHG1 /// SNORD22 /// SNORD25 /// SNORD26 /// SNORD27 /// SNORD28 /// SNORD29 /// SNORD31 / Fold change vs veh, SNHG1 /// SNORD22 /// SNORD25 /// SNORD26 /// SNORD27 /// SNORD28 /// SNORD29 /// SNORD31 / Fold change (Aza/veh), C12orf56 (ProbeSet 11735607_a_at) / Fold change (ACY-1035/veh), C12orf56 (ProbeSet 11735607_a_at) / Fold change (Aza/veh), FGFR1OP (ProbeSet 11751329_s_at) / Fold change (ACY-1035/veh), FGFR1OP (ProbeSet 11751329_s_at) / Fold change (Aza/veh), VPS36 (ProbeSet 11739960_a_at) / Fold change (ACY-1035/veh), VPS36 (ProbeSet 11739960_a_at) / RFU SYPL1 (11715823_x_at) / Fold change /veh SYPL1 (11715823_x_at) / RFU IGFBP7 (11715501_s_at) / Fold change /veh IGFBP7 (11715501_s_at) / RFU REEP3 (11722064_at) / Fold change /veh REEP3 (11722064_at) / RFU IGLL1 (11728026_x_at) / Fold change /veh IGLL1 (11728026_x_at): dose or concentration left out as unconfirmed
Conditions: ProbeSet 11745789_a_at; LIST D

## Nc1ncn([C@@H]2O[C@H](CO)[C@@H](O)[C@H]2O)c(=O)n1 [azacitidine]
  Fold change vs veh, TMEM135: 0.56
